# Source: a melting point compilation (Tetko et al.; mined from patent text by program, amines drawn as free bases though some values may be those of a salt)
row,Compound,melting point
1,COc1cc(C(C)C)c2c(c1)S(=O)(=O)N(COc1cc(Cl)nn1-c1ccccc1)C2=O,109 to 110 °C
2,CC1=CC(c2ccccc2Cl)C(C(=O)OC(C)C)=C(N)N1 (centres undefined),161 °C
3,Cc1ccc2c(c1NC(=O)CC1c3ccccc3Oc3ccccc31)OC(C)C2 (centres undefined),290 to 291 °C
4,O=C1NC(=O)c2ccc(I)cc2/C1=C/NCc1ccc(-n2cccc2)c(O)c1,230 to 231 °C
5,CSc1ccc(C(=O)Nc2ccccc2)cc1[N+](=O)[O-],219 to 222 °C
6,N#Cc1nn(-c2c(Cl)cc(C(F)(F)F)cc2Cl)c(N)c1-c1cc(Br)no1,227 °C
7,CCOC(=O)C1(n2cc(Br)cc2C(=O)C(Cl)(Cl)Cl)CC(=O)NC1=O (centres undefined),196 to 198 °C
8,COc1ccc(C(O)c2cccnc2)cn1 (centres undefined),129 to 130 °C
9,CCCCCCCCOC(=O)Oc1ccc(C(=O)O)cc1,126 °C
10,C#CCOC(=O)c1ccc(O)cc1O,104 to 106 °C
11,COc1ccccc1NC(=O)Nc1nc(Nc2ccc(-c3ccccc3)cc2)nc(N(CCC(=O)O)Cc2ccc(Cl)c(Cl)c2)n1,215 to 220 °C
12,CCC(=O)Nc1nc2c(s1)-c1nc(-c3ccccc3)ncc1CC2,274 to 275 °C
13,NC(=O)N(O)Cc1cc(Oc2ccc(Cl)cc2)cs1,141 to 142 °C
14,CN(C)Cc1cc(Cc2ccccc2)c(O)c(Cc2ccccc2)c1,112 to 114 °C
15,CCC1(O)OCc2c1ccnc2OC (centres undefined),145 °C
16,COc1ccc(C2=NN(Cc3ccc(O)cc3)C(=O)[C@H]3CCCC[C@@H]23)cc1OC (relative stereo),177 to 179 °C
17,CCSc1cccc2c1CC(=O)N2,143 to 144 °C
18,CCOC(=O)c1sc(SC(C)C)c2c1CCC(NC(C)=O)C2=O (centres undefined),170 to 171 °C
19,COc1ccc([C@@H]2CCc3cc(OC)ccc3[C@@H]2Cn2ccnc2)cc1 (relative stereo),114 °C
20,CC(=O)c1ccc(-c2ccc(F)cc2)c(F)c1,80 to 82.5 °C

row,Compound,melting point
1,COC(=O)CC[C@H](NC(=O)OCc1ccccc1)C(=O)O,61 to 63 °C
2,O=c1cc2c(nn1Cc1ccc(Cl)cc1)-c1cc(Br)sc1SCC2,152 to 154 °C
3,COc1ccc(Cn2c(C)cc3c(=O)[nH][nH]c(=O)c32)cc1,300 °C
4,CCCC1OCc2c(O)c(C)nc(Cl)c21 (centres undefined),242 °C
5,NC(=O)C(Cc1ccccc1N1CCCCC1)c1ccc(C(=O)O)cc1 (centres undefined),175 to 177 °C
6,COc1c(C(=O)Nc2ccc(OCC(C)(C)C)c(C#N)c2)cnn1-c1ccc(F)cc1,120 to 123 °C
7,COc1ccc2[nH]c(S(=O)Cc3ncnc(N4CCCCC4)c3C)nc2c1 (centres undefined),87 to 89 °C
8,OC(Cn1ccnc1)(c1ccc(-c2ccccc2)cc1)c1ccccc1Cl (centres undefined),222 °C
9,Cc1nnc(-c2ccc3occ(-c4ccc(S(C)=O)cc4)c3n2)o1 (centres undefined),219 to 220 °C
10,COc1ccc2c(c1)c(-c1cc3c(C(=O)N4CCOCC4)ccnc3[nH]1)cn2C,259 to 260 °C
11,COc1ccc(-c2ccc3nn(-c4cc(C(C)(C)CC(C)(C)C)cc(C(C)(C)c5ccccc5)c4O)nc3c2)cc1,129 to 131 °C
12,COC(=O)C1Cc2c(OC)cccc2N1S(=O)(=O)c1ccc(-c2ccc(F)cc2Cl)cc1 (centres undefined),80 °C
13,CC1(C)C=C(c2ccc3ccccc3n2)c2cc(C#N)ccc2O1,102 to 104 °C
14,N#CC1=C(c2cccs2)Nc2n[nH]cc2C1c1cccc(C#N)c1Br (centres undefined),> 280 °C
15,Cc1cccc(C)c1O[C@@H]1CCNC[C@H]1O (relative stereo),131 to 133 °C
16,CC(C)(C)OC(=O)Nc1cc(N2CC3OC(C)(C)OC3C2)c(-c2ccc(F)cc2)cc1[N+](=O)[O-] (centres undefined),119 °C
17,CCOC(=O)N(C)C1CCN(c2nc3ccccc3n2Cc2ccc(F)cc2)CC1,125 °C
18,COc1ccc(-c2nc3cnccc3[nH]2)c(OCC#N)c1,198 °C
19,N#CCCCNC(=O)c1nn(C2CCCCO2)cc1NC(=O)c1ccccn1 (centres undefined),155 to 157 °C
